Structures are written as SMILES.

One data set relates to 3T3-L1 pre adipocytes. Description: Cell toxicity of compounds at various doses. The format is cell-based. The note with it: 5 μM, Day 1, 3T3-L1 pre adipocytes. The protocol: For the following screens, compounds 1-5 were dissolved in DMSO. 3T3-L1 pre adipocytes were first exposed to different concentrations (5 μM, 10 μM, 20 μM, 50 μM and 100 μM) of the compounds to test for toxicity compared with DMSO control exposure. Exposure to other concentrations was followed until Day 5. Compound 2 was the most toxic at 20 μM on Day 5.
For the compound `N#CC(Nc1ccc([B-](F)(F)F)cc1)c1cc(-c2ccc(F)cc2)on1` (stereo not shown) [Compound 4], the Cell toxicity is recorded as 0%.

For the compound `N#CC(Nc1ccc([B-](F)(F)F)cc1)c1ccco1` (stereo not shown) [Compound 5], the Cell toxicity is 0%.

The data set is the same for the next values; noted with them: 5 μM, Day 2, 3T3-L1 pre adipocytes.
Turning to `N#CC(Nc1ccc([B-](F)(F)F)cc1)c1cc(-c2ccc(F)cc2)on1` (stereo not shown) [Compound 4], the Cell toxicity was 0-5%.

For `N#CC(Nc1ccc([B-](F)(F)F)cc1)c1ccco1` (stereo not shown) [Compound 5], the Cell toxicity is given as 0-5%.

Still in this data set, the particulars now being: 5 μM, Day 3, 3T3-L1 pre adipocytes.
For the compound `N#CC(Nc1ccc([B-](F)(F)F)cc1)c1cc(-c2ccc(F)cc2)on1` (stereo not shown) [Compound 4], the Cell toxicity is on record as 0-5%.

`N#CC(Nc1ccc([B-](F)(F)F)cc1)c1ccco1` (stereo not shown) [Compound 5]: the Cell toxicity is recorded as 0-5%.

The same data set, now with this note: 5 μM, Day 4, 3T3-L1 pre adipocytes.
For `N#CC(Nc1ccc([B-](F)(F)F)cc1)c1cc(-c2ccc(F)cc2)on1` (stereo not shown) [Compound 4], the Cell toxicity was 0-5%.

Consider `N#CC(Nc1ccc([B-](F)(F)F)cc1)c1ccco1` (stereo not shown) [Compound 5], for which the Cell toxicity is on record as 0-5%.

Staying with this data set, now noted: 5 μM, Day 5, 3T3-L1 pre adipocytes.
On to `N#CC(Nc1ccc([B-](F)(F)F)cc1)c1cc(-c2ccc(F)cc2)on1` (stereo not shown) [Compound 4], for which the Cell toxicity is given as 0-5%.

As for `N#CC(Nc1ccc([B-](F)(F)F)cc1)c1ccco1` (stereo not shown) [Compound 5], the Cell toxicity is listed as 0-5%.

The same data set, now with this note: 10 μM, Day 1, 3T3-L1 pre adipocytes.
Regarding `N#CC(Nc1ccc([B-](F)(F)F)cc1)c1cc(-c2ccc(F)cc2)on1` (stereo not shown) [Compound 4], the Cell toxicity is on record as 0-5%.

`N#CC(Nc1ccc([B-](F)(F)F)cc1)c1ccco1` (stereo not shown) [Compound 5]: the Cell toxicity was 0-5%.

Staying with this data set, now noted: 10 μM, Day 2, 3T3-L1 pre adipocytes.
`N#CC(Nc1ccc([B-](F)(F)F)cc1)c1cc(-c2ccc(F)cc2)on1` (stereo not shown) [Compound 4] returned a Cell toxicity of more than 5%.

Consider `N#CC(Nc1ccc([B-](F)(F)F)cc1)c1ccco1` (stereo not shown) [Compound 5], for which the Cell toxicity is given as more than 5%.

Still in this data set, the particulars now being: 10 μM, Day 3, 3T3-L1 pre adipocytes.
Regarding `N#CC(Nc1ccc([B-](F)(F)F)cc1)c1cc(-c2ccc(F)cc2)on1` (stereo not shown) [Compound 4], the Cell toxicity entry is “≧10%”.

Take `N#CC(Nc1ccc([B-](F)(F)F)cc1)c1ccco1` (stereo not shown) [Compound 5]: the Cell toxicity entry was “≧10%”.

The data set is the same for the next values; noted with them: 10 μM, Day 4, 3T3-L1 pre adipocytes.
Take `N#CC(Nc1ccc([B-](F)(F)F)cc1)c1cc(-c2ccc(F)cc2)on1` (stereo not shown) [Compound 4]: the Cell toxicity entry was “≧10%”.

For the compound `N#CC(Nc1ccc([B-](F)(F)F)cc1)c1ccco1` (stereo not shown) [Compound 5], the Cell toxicity result is given as “≧10%”.

The same data set, now with this note: 10 μM, Day 5, 3T3-L1 pre adipocytes.
As for `N#CC(Nc1ccc([B-](F)(F)F)cc1)c1cc(-c2ccc(F)cc2)on1` (stereo not shown) [Compound 4], the Cell toxicity result was “≧10%”.

Consider `N#CC(Nc1ccc([B-](F)(F)F)cc1)c1ccco1` (stereo not shown) [Compound 5], for which the Cell toxicity result was “≧10%”.

The data set is the same for the next values; noted with them: 20 μM, Day 1, 3T3-L1 pre adipocytes.
`N#CC(Nc1ccc([B-](F)(F)F)cc1)c1cc(-c2ccc(F)cc2)on1` (stereo not shown) [Compound 4]: the Cell toxicity is reported as 5-10%.

In the case of `N#CC(Nc1ccc([B-](F)(F)F)cc1)c1ccco1` (stereo not shown) [Compound 5], the Cell toxicity is recorded as 5-10%.

The data set is the same for the next values; noted with them: 20 μM, Day 2, 3T3-L1 pre adipocytes.
In the case of `N#CC(Nc1ccc([B-](F)(F)F)cc1)c1cc(-c2ccc(F)cc2)on1` (stereo not shown) [Compound 4], the Cell toxicity is reported as 10-15%.

Consider `N#CC(Nc1ccc([B-](F)(F)F)cc1)c1ccco1` (stereo not shown) [Compound 5], for which the Cell toxicity is listed as 10-15%.

The same data set, now with this note: 20 μM, Day 3, 3T3-L1 pre adipocytes.
For `N#CC(Nc1ccc([B-](F)(F)F)cc1)c1cc(-c2ccc(F)cc2)on1` (stereo not shown) [Compound 4], the Cell toxicity result is reported as “≧15%”.

Consider `N#CC(Nc1ccc([B-](F)(F)F)cc1)c1ccco1` (stereo not shown) [Compound 5], for which the Cell toxicity is 10-15%.

Staying with this data set, now noted: 20 μM, Day 4, 3T3-L1 pre adipocytes.
Regarding `N#CC(Nc1ccc([B-](F)(F)F)cc1)c1cc(-c2ccc(F)cc2)on1` (stereo not shown) [Compound 4], the Cell toxicity result was “≧15%”.

`N#CC(Nc1ccc([B-](F)(F)F)cc1)c1ccco1` (stereo not shown) [Compound 5]: the Cell toxicity was 10-15%.

Staying with this data set, now noted: 20 μM, Day 5, 3T3-L1 pre adipocytes.
`N#CC(Nc1ccc([B-](F)(F)F)cc1)c1cc(-c2ccc(F)cc2)on1` (stereo not shown) [Compound 4]: the Cell toxicity result was “≧15%”.

On to `N#CC(Nc1ccc([B-](F)(F)F)cc1)c1ccco1` (stereo not shown) [Compound 5], for which the Cell toxicity is reported as 10-15%.

The same data set, now with this note: 50 μM, Day 1, 3T3-L1 pre adipocytes.
As for `N#CC(Nc1ccc([B-](F)(F)F)cc1)c1cc(-c2ccc(F)cc2)on1` (stereo not shown) [Compound 4], the Cell toxicity is 30-40%.

Compound `N#CC(Nc1ccc([B-](F)(F)F)cc1)c1ccco1` (stereo not shown) [Compound 5] displayed a Cell toxicity of more than 15%.

The data set is the same for the next values; noted with them: 50 μM, Day 2, 3T3-L1 pre adipocytes.
For `N#CC(Nc1ccc([B-](F)(F)F)cc1)c1cc(-c2ccc(F)cc2)on1` (stereo not shown) [Compound 4], the Cell toxicity was 90-95%.

`N#CC(Nc1ccc([B-](F)(F)F)cc1)c1ccco1` (stereo not shown) [Compound 5]: the Cell toxicity is on record as 90-95%.

Still in this data set, the particulars now being: 100 μM, Day 1, 3T3-L1 pre adipocytes.
`N#CC(Nc1ccc([B-](F)(F)F)cc1)c1cc(-c2ccc(F)cc2)on1` (stereo not shown) [Compound 4] showed a Cell toxicity of more than 90%.

The compound `N#CC(Nc1ccc([B-](F)(F)F)cc1)c1ccco1` (stereo not shown) [Compound 5] showed a Cell toxicity of more than 90%.

Staying with this data set, now noted: 100 μM, Day 2, 3T3-L1 pre adipocytes.
For the compound `N#CC(Nc1ccc([B-](F)(F)F)cc1)c1cc(-c2ccc(F)cc2)on1` (stereo not shown) [Compound 4], the Cell toxicity is recorded as 95-100%.

`N#CC(Nc1ccc([B-](F)(F)F)cc1)c1ccco1` (stereo not shown) [Compound 5]: the Cell toxicity is reported as 95-100%.

The test system of a further data set is 3T3-L1 cells. As to the kind of experiment: Glucose uptake under basal and insulin stimulated conditions (FIG. 2). The format is cell-based. The note with it: 24 hours exposure. As to the method:
Next, glucose uptake by 3T3-L1 cells exposed to compounds 1-5 was determined at 5 μM concentration. Cells were exposed to compounds 1-5 for 24 hours and exposure to DMSO was used as the control group. 2-Deoxy glucose (2-DG) uptake was determined using the analog compounds without serum starving the cells prior to determining glucose uptake. As indicated in FIG. 1 glucose uptake in 3T3-L1 pre-adipocytes was determined by exposing cells to compounds 1-5 for 24 hours without serum starvation. All compounds show significant increase (p<0.05) in glucose uptake under basal conditions compared with the DMSO treated control cells. To confirm these observations glucose uptake was examined under basal and insulin stimulated conditions with cells exposed to compounds 1-5 for 24 hours.
For the compound `N#CC(Nc1ccc([B-](F)(F)F)cc1)c1cc(-c2ccc(F)cc2)on1` (stereo not shown) [Compound 4], the “Glucose uptake under basal and insulin stimulated conditions” value is listed as “most significant increase”.

As to `N#CC(Nc1ccc([B-](F)(F)F)cc1)c1ccco1` (stereo not shown) [Compound 5], the “Glucose uptake under basal and insulin stimulated conditions” value is given as “most significant increase”.

For the origin of these results see patent US9469659B2, “Compositions and methods for improving glucose uptake” (Board of Supervisors of Louisiana State University and …, priority 2012, dated 2016).
